Measured values taken from patent US12617773B2, “Azetidin-3-ylmethanol derivatives as CCR6 receptor modulators” (Idorsia Pharmaceuticals Ltd, priority 2020, dated 2026).

These molecules were tested against T1, human CCR6 (Homo sapiens, UniProt P51684) (assay: FLIPR assay (inhibition of CCL20-induced calcium signal)). Conditions: HEK-293 cells expressing human CCR6; mean values where determined several times; read-out: FLIPR IC50.
T1 construct: expressed in transfected cells; host or cells: HEK-293
T1 sequence (P51684 1-374): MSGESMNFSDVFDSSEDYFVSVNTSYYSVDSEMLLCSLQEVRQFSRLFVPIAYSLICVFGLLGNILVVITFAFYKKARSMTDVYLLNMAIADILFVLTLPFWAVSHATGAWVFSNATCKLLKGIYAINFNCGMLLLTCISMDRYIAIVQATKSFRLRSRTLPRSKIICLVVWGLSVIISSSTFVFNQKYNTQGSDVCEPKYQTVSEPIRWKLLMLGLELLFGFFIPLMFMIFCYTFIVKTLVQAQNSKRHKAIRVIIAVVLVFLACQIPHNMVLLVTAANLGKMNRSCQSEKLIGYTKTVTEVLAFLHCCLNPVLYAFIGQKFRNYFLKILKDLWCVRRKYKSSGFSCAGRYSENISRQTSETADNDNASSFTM
Format: cell-based
Outline: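 Dye-loaded HEK-293 cells expressing human CCR6 were preincubated with compound for 30 min at room temperature in the dark, then challenged with 10 nM CCL20 (final). Fluorescence was tracked on FLIPR, and baseline-subtracted peak emission over base after agonist addition gave inhibition dose-response curves for IC50.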
`CC(C)c1ccc([C@](O)(c2cncc(-c3nc(C4CCN(C(=O)CO)CC4)no3)c2)C2(C)CN(C)C2)cc1` [Example 529, 1-[4-(5-{5-[(R)-(1,3-Dimethyl-azetidin-3-yl)-hydroxy-(4-isopropyl-phenyl)-methyl]-pyridin-3-yl}-[1,2,4]oxadiazol-3-yl)-piperidin-1-yl]-2-hydroxy-ethanone] gave an IC50 of 134 nM.
`CC(C)c1ccc([C@](O)(c2cncc(-c3ncon3)c2)C2(C)CN(C)C2)cc1` [Example 530, (R)-(1,3-Dimethyl-azetidin-3-yl)-(4-isopropyl-phenyl)-(5-[1,2,4]oxadiazol-3-yl-pyridin-3-yl)-methanol] showed an IC50 of 58.7 nM.
In the case of `CC(=O)N1CCC(c2nc(-c3cncc([C@@](O)(c4ccc(C(C)C)cc4)C4(C)CN(C)C4)c3)no2)CC1` [Example 531, 1-[4-(3-{5-[(R)-(1,3-Dimethyl-azetidin-3-yl)-hydroxy-(4-isopropyl-phenyl)-methyl]-pyridin-3-yl}-[1,2,4]oxadiazol-5-yl)-piperidin-1-yl]-ethanone], the IC50 is reported as 90 nM.
In the case of `CN1CC(C)([C@](O)(c2ccc(Br)cc2)c2cncc(-c3noc(C(C)(C)O)n3)c2)C1` [Example 532], the IC50 is reported as 718 nM.
`CN1CC(C)([C@@](O)(c2cncc(-c3noc(C(C)(C)O)n3)c2)c2ccc3ccccc3c2)C1` [Example 533] gave an IC50 of 1020 nM.
`CN1CC(C)([C@](O)(c2ccc(C3(C(F)(F)F)CC3)cc2)c2cncc(-c3noc(C(C)(C)O)n3)c2)C1` [Example 534] gave an IC50 of 47 nM.
In the case of `CN1CC(C)([C@](O)(c2ccc(C(C)(C)C(F)(F)F)cc2)c2cncc(-c3noc(C(C)(C)O)n3)c2)C1` [Example 535], the IC50 is reported as 331 nM.
`CC(C)Oc1ccc([C@](O)(c2cncc(-c3noc(C(C)(C)O)n3)c2)C2(C)CN(C)C2)cc1` [Example 536] showed an IC50 of 2450 nM.
`CN1CC(C)([C@](O)(c2ccc(C(F)(C(F)(F)F)C(F)(F)F)cc2)c2cncc(-c3noc(C(C)(C)O)n3)c2)C1` [Example 537] showed an IC50 of 152 nM.
In the case of `CN1CC(C)([C@](O)(c2ccc(S(F)(F)(F)(F)F)cc2)c2cncc(-c3noc(C(C)(C)O)n3)c2)C1` [Example 538], the IC50 is reported as 145 nM.
For `CC(C)c1ccc([C@](O)(c2cncc(-c3noc(C(C)(C)O)n3)c2)C2(C)CN(C)C2)cc1F` [Example 539], the IC50 was 56 nM.
`CN1CC(C)([C@](O)(c2ccc(C(C)(C)C)cc2)c2cncc(-c3noc(C(C)(C)O)n3)c2)C1` [Example 540] showed an IC50 of 122 nM.
`CN1CC(C)([C@@](O)(c2cncc(-c3noc(C(C)(C)O)n3)c2)c2ccc3sccc3c2)C1` [Example 541] gave an IC50 of 452 nM.
For `CN1CC(C)([C@](O)(c2ccc(C(F)(F)C(F)(F)F)cc2)c2cncc(-c3noc(C(C)(C)O)n3)c2)C1` [Example 542], the IC50 was 34.8 nM.
`CN1CC(C)([C@](O)(c2ccc(C3(C)CC3)cc2)c2cncc(-c3noc(C(C)(C)O)n3)c2)C1` [Example 543] showed an IC50 of 22.8 nM.
For `Cc1cc([C@](O)(c2cncc(-c3noc(C(C)(C)O)n3)c2)C2(C)CN(C)C2)ccc1C(C)C` [Example 544], the IC50 was 257 nM.
`CN1CC(C)([C@](O)(c2ccc(OC(F)(F)F)cc2)c2cncc(-c3noc(C(C)(C)O)n3)c2)C1` [Example 545] showed an IC50 of 61 nM.
With `CC(=O)N1CCC(c2nc(-c3cncc([C@@](O)(c4ccc(Br)cc4)C4(C)CN(C)C4)c3)no2)CC1` [Example 546] the IC50 was 776 nM.
`CN1CC(C)([C@](O)(c2ccc(C(C)(C)F)cc2)c2cncc(-c3noc(C(C)(C)O)n3)c2)C1` [Example 547] was tested, and the IC50 was 797 nM.
For `CN1CC(C)([C@](O)(c2ccc(C(C)(F)F)cc2)c2cncc(-c3noc(C(C)(C)O)n3)c2)C1` [Example 548], the IC50 was 742 nM.
`CN1CC(C)([C@](O)(c2ccc(C34CC(C3)C4)cc2)c2cncc(-c3noc(C(C)(C)O)n3)c2)C1` [Example 549] showed an IC50 of 58.2 nM.
Work on `CN1CC(C)([C@](O)(c2ccc(CC(F)(F)F)cc2)c2cncc(-c3noc(C4CCOCC4)n3)c2)C1` [Example 550] yielded an IC50 of 70.8 nM.
Molecule `CCC(C)(C)c1ccc([C@](O)(c2cncc(-c3noc(C(C)(C)O)n3)c2)C2(C)CN(C)C2)cc1` [Example 551] has an IC50 of 135 nM.
For `CC(=O)N1CCC(c2nc(-c3cncc([C@@](O)(c4ccc(C(C)C)c(F)c4)C4(C)CN(C)C4)c3)no2)CC1` [Example 552], the IC50 was 76.8 nM.
In the case of `CC(=O)N1CCC(c2nc(-c3cncc([C@@](O)(c4ccc(C5(C(F)(F)F)CC5)cc4)C4(C)CN(C)C4)c3)no2)CC1` [Example 553], the IC50 is reported as 62.3 nM.
`CC(=O)N1CCC(c2nc(-c3cncc([C@@](O)(c4ccc(OC(F)(F)F)cc4)C4(C)CN(C)C4)c3)no2)CC1` [Example 554] gave an IC50 of 117 nM.
With `CC(=O)N1CCC(c2nc(-c3cncc([C@@](O)(c4ccc(OC(C)C)cc4)C4(C)CN(C)C4)c3)no2)CC1` [Example 555] the IC50 was 986 nM.
For `CC(C)c1ccc([C@](O)(c2cncc(-c3noc(C(C)(C)O)n3)c2)C2(C)CN(C)C2)cc1Cl` [Example 556], the IC50 was 615 nM.
Work on `CN1CC(C)([C@](O)(c2ccc(C3CCC3)cc2)c2cncc(-c3noc(C(C)(C)O)n3)c2)C1` [Example 557] yielded an IC50 of 46.3 nM.
In the case of `CC(=O)N1CCC(c2nc(-c3cncc([C@@](O)(c4ccc(C5CCC5)cc4)C4(C)CN(C)C4)c3)no2)CC1` [Example 558], the IC50 is reported as 84.5 nM.
`CC(=O)N1CCC(c2nc(-c3cncc([C@@](O)(c4cc(F)c(C(C)C)c(F)c4)C4(C)CN(C)C4)c3)no2)CC1` [Example 559] gave an IC50 of 85.6 nM.
`CC(C)c1c(F)cc([C@](O)(c2cncc(-c3noc(C(C)(C)O)n3)c2)C2(C)CN(C)C2)cc1F` [Example 560] was tested, and the IC50 was 74.6 nM.
Work on `CC(=O)N1CCC(c2nc(-c3cncc([C@@](O)(c4ccc(OC5CCC5)cc4)C4(C)CN(C)C4)c3)no2)CC1` [Example 561] yielded an IC50 of 766 nM.
`CCC(CC)c1ccc(C(O)(c2cncc(-c3noc(C(C)(C)O)n3)c2)C2(C)CN(C)C2)cc1` (stereo not drawn) [Example 562] was tested, and the IC50 was 44.7 nM.
For `CCC(CC)c1ccc(C(O)(c2cncc(-c3noc(C4CCN(C(C)=O)CC4)n3)c2)C2(C)CN(C)C2)cc1` (stereo not drawn) [Example 563], the IC50 was 45.2 nM.
`CN1CC(C)(C(O)(c2ccc(CC(C)(C)C)cc2)c2cncc(-c3noc(C(C)(C)O)n3)c2)C1` (stereo not drawn) [Example 564] showed an IC50 of 91.9 nM.
Molecule `CC(=O)N1CCC(c2nc(-c3cncc(C(O)(c4ccc(CC(C)(C)C)cc4)C4(C)CN(C)C4)c3)no2)CC1` (stereo not drawn) [Example 565] has an IC50 of 116 nM.
`CC(=O)N1CCC(c2nc(-c3cncc(C(O)(c4ccc(C5(C)CC5)cc4)C4(C)CN(C)C4)c3)no2)CC1` (stereo not drawn) [Example 566] gave an IC50 of 209 nM.
Work on `CCCc1ccc([C@](O)(c2cncc(-c3noc(C(C)(C)O)n3)c2)C2(C)CN(C)C2)cc1` [Example 567] yielded an IC50 of 59.1 nM.
In the case of `CN1CC(C)([C@](O)(c2ccc(C3CC3)cc2)c2cncc(-c3noc(C(C)(C)O)n3)c2)C1` [Example 568], the IC50 is reported as 97.6 nM.
Work on `CCc1ccc([C@](O)(c2cncc(-c3noc(C(C)(C)O)n3)c2)C2(C)CN(C)C2)cc1` [Example 569] yielded an IC50 of 118 nM.
Work on `CCCCc1ccc([C@](O)(c2cncc(-c3noc(C(C)(C)O)n3)c2)C2(C)CN(C)C2)cc1` [Example 570] yielded an IC50 of 65.8 nM.
Molecule `CN1CC(C)([C@](O)(c2ccc(C(F)(F)F)cc2)c2cncc(-c3noc(C(C)(C)O)n3)c2)C1` [Example 571] has an IC50 of 1190 nM.
Molecule `CN1CC(C)([C@](O)(c2ccc(CC(F)(F)F)cc2)c2cncc(-c3noc(C(C)(C)O)n3)c2)C1` [Example 572] has an IC50 of 149 nM.
In the case of `CC(C)Cc1ccc([C@](O)(c2cncc(-c3noc(C(C)(C)O)n3)c2)C2(C)CN(C)C2)cc1` [Example 573], the IC50 is reported as 75.9 nM.
